ChEMBL document CHEMBL1201862, “PubChem BioAssay data set” (2004)
Calls of active or inactive are those of the source.

Experiments:
[1] = viability of uninfected HEp-2 cells – cell-based, HTS, cytotoxicity control for RSV inhibitor project, dose response (AID 2410); format: functional; conditions: human respiratory syncytial virus
INS1 = assay: INS-1E survival protection against cytokine death – cell-based, luminescence, retest, dose response (AID 449756); format: functional; conditions: Rattus norvegicus;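 also: cell death triggered by IL-1 beta plus TNF-alpha plus IFN-gamma mixture; protective hits raise ATP signal compared with cytokine alone wells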
Protein Wnt-3a = Protein Wnt-3a (Mus musculus, UniProt P27467); assay: antagonism of Wnt3a pathway luciferase reporter – Wnt-LIGHT cells, luminescence, selectivity assay for Gli-SUFU antagonist project, dose response (AID 651570); format: functional; conditions: read-out: IC50_Mean;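 also: Wnt-LIGHT reporter cells stimulated with conditioned medium from Wnt3a-producing cells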
Protein Wnt-3a, sequence (P27467 whole entry): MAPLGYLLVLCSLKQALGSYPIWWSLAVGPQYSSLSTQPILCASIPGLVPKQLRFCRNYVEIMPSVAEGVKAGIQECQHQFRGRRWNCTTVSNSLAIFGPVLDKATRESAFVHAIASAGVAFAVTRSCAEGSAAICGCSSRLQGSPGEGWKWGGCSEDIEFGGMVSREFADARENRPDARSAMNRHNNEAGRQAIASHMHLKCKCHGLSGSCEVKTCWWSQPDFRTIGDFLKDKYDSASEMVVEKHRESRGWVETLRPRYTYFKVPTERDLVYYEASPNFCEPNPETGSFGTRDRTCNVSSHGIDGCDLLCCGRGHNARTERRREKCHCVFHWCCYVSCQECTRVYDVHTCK

Vero = assay: mammalian cell viability reduction – secondary assay, cytotoxicity control for West Nile virus antiviral project, dose response (AID 1650); format: functional; conditions: Chlorocebus sabaeus
[2] = target: T1, Microphthalmia-associated transcription factor (Homo sapiens, UniProt O75030); assay: reducers of TRPM1 reporter luminescence, concentration series – cell-based, SK-MEL-5, cherry-picked, set 3, MITF inhibitor project, dose response (AID 493073); format: functional;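 also: SK-MEL-5 melanoma cells with luciferase driven by the MITF target TRPM1 promoter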
T1 sequence (O75030 whole entry): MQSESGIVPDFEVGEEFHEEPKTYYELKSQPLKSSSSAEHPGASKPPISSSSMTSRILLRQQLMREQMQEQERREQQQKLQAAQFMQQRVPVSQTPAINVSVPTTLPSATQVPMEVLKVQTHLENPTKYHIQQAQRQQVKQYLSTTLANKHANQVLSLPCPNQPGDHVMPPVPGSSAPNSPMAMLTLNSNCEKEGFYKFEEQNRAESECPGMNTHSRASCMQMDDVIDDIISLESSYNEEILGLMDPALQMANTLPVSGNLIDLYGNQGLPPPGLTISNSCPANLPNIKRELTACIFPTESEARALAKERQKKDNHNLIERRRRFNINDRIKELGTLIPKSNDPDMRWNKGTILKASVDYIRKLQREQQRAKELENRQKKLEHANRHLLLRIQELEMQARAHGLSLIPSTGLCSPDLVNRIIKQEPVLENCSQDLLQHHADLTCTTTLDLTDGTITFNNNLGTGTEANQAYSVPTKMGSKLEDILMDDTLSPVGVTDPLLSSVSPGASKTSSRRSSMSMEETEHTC

Interleukin-8 = Interleukin-8 (Homo sapiens, UniProt P10145); assay: Dose Response confirmation of uHTS small molecule hits for cystic fibrosis induced NFkb Inhibitors in a PAF-induced IL8 counterscreen.; format: functional; conditions: read-out: IC50_Mean
Interleukin-8, sequence (P10145 whole entry): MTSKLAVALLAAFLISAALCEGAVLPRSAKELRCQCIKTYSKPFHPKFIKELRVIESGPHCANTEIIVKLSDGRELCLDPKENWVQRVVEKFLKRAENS

Paired box protein Pax-8 = Paired box protein Pax-8 (Homo sapiens, UniProt Q06710); assay: PAX8 transcriptional activity inhibition in RMG-I – RMG-I cells, luciferase, cherry-pick, dose response (AID 687027); format: functional, cell-based;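 also: luciferase reporter driven by Pax8 target thyroperoxidase promoter measured by SteadyGlo luminescence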
Paired box protein Pax-8, sequence (Q06710 whole entry): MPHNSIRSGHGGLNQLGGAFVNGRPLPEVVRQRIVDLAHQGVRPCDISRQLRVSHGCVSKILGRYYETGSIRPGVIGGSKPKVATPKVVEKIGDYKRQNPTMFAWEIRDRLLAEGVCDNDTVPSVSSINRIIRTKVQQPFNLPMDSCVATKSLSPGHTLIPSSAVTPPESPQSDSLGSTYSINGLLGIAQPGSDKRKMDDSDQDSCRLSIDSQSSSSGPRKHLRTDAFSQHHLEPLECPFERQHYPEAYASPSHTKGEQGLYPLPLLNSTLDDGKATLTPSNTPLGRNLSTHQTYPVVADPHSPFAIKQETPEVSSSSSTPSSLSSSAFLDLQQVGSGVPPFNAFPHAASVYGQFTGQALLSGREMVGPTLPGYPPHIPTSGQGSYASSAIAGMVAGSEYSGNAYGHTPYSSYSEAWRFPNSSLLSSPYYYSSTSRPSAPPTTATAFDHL

[3] = inhibitors acting on PAX2 in cells – cell-based, plate reader, dry powder samples, selectivity assay for PAX8 inhibitor project, dose response (AID 743048); format: functional;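 also: HEK293 cells carrying a WT1 promoter luciferase reporter driven by expressed Pax2; potency is for inhibition of Pax2 driven reporter signal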
[4] = PAX5 cellular inhibition readout – cell-based, plate reader, dry powder samples, selectivity assay for PAX8 inhibitor project, dose response (AID 743047); format: functional;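 also: HEK293 cells carrying a Pax5 driven CD19 promoter luciferase reporter; potency of inhibitors that lower reporter luminescence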
[5] = IGROV1 cell killing – plate reader, dry powder samples, PAX8 inhibitor project, dose response (AID 743043); format: functional, cell-based; conditions: IGROV-1
[6] = OVCAR4 cell viability loss – plate reader, dry powder, SA11, cytotoxicity control for PAX8 inhibitor project, dose response (AID 743150); format: functional, cell-based; conditions: OVCAR-4
[7] = COV434 cell viability loss – plate reader, dry powder, SA7, cytotoxicity control for PAX8 inhibitor project, dose response (AID 743145); format: functional, cell-based
[8] = OV-90 cell viability loss – plate reader, dry powder, SA8, PAX8 inhibitor project, dose response (AID 743149); format: functional, cell-based
[9] = PAX8-dependent cell viability loss – plate reader, dry powder, dose response (AID 743049); format: functional, cell-based
[10] = inhibition of ARNT PAS-B/TACC3 complex formation – biochemical, AlphaScreen, cherry-picked samples, confirmation (AID 651703); format: functional, Homo sapiens;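 also: His-tagged ARNT PAS-B domain paired with GST-TACC3 E629A dimer coactivator fragment; potency of inhibitors that break up the complex and lower AlphaScreen signal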

Structure (SMILES): Cc1ccc(Cl)cc1N1CCN(C(=O)CSc2nnc3n2C(C)(C)Cc2ccccc2-3)CC1
- CC50 [1]: < 0.1 µM (active)
- AC50 (INS1): 5.01 µM (active)
- IC50 (Protein Wnt-3a): 4.43 µM (active)

Structure (SMILES): Cc1ccc(S(=O)(=O)CC(CN2CCCCC2)N2CCCCC2)cc1 (stereo not given)
- CC50 (Vero): 8.81 µM (active)
- AC50 [2]: 8.1 µM (active)
- IC50 (Interleukin-8): 4.55 µM (active)
- AC50 (Paired box protein Pax-8): 4.72 µM (active)
- AC50 [3]: > 100 µM (inactive)
- AC50 [4]: 22.9 µM (active)
- AC50 [5]: 46.5 µM (active)
- AC50 [6]: 80.7 µM (active)
- AC50 [7]: 9.72 µM (active)
- AC50 [8]: 15.7 µM (active)
- AC50 [9]: 17.1 µM (active)

Structure (SMILES): Cn1ccnc1-c1nc2ccccc2nc1O
- AC50 [10]: 71.9 µM (active)
